The numbers were not newly measured in patent US7235142B2, “Non-toxic corrosion-protection rinses and seals based on cobalt” (University of Dayton, priority 2002, dated 2007), which cites them from elsewhere.

The conditions of this series: pH 7.
With `N.N.N.N.N.N.[Cl-].[Cl-].[Cl-].[Co+3]` [Hexaammine cobalt (III) chloride], the “Solubility in Water” value was 0.22 mol/L.

Take `N.N.N.N.N.[Cl][Co]([Cl])[Cl]` [Pentaammine cobalt (III) chloride]: the “Solubility in Water” value was 0.93 mol/L.

Turning to `[O-][Cl+3]([O-])([O-])O` [Sodium perchlorate], the “Solubility in Water” value is 15 mol/L.

With `[O-][Cl+3]([O-])([O-])[O-].[O-][Cl+3]([O-])([O-])[O-].[Sr+2]` [Strontium perchlorate], the “Solubility in Water” value is 11 mol/L.
